Experimental data reported in patent publication US10035760B2, “Inhibitors of human immunodeficiency virus replication” (priority 2013, dated 2018).
Like-named read-outs stand apart in the source and are kept apart here.

System: recombinant NL4-3 virus (Renilla luciferase) in MT-2 cells
Assay: HIV cell culture assay (antiviral activity, luciferase readout in infected MT-2 cells)
Format: cell-based
Conditions: Renilla
Protocol: HIV cell culture assay—MT-2 cells, 293T cells and the proviral DNA clone of NL4-3 virus were obtained from the NIH AIDS Research and Reference Reagent Program. MT-2 cells were propagated in RPMI 1640 media supplemented with 10% heat inactivated fetal bovine serum (FBS), 100 ug/ml penicillin G and up to 100 units/ml streptomycin. The 293T cells were propagated in DMEM media supplemented with 10% heat inactivated FBS, 100 ug/ml penicillin G and 100 ug/ml streptomycin. A recombinant NL4-3 proviral clone, in which a section of the nef gene was replaced with the Renilla luciferase gene, was used to make the reference virus used in these studies. The recombinant virus was prepared through transfection of the recombinant NL4-3 proviral clone into 293T cells using Transit-293 Transfection Reagent from Mirus Bio LLC (Madison, Wis.). Supernatent was harvested after 2-3 days after transfection, and the amount of virus present was titered in MT-2 cells using luciferase enzyme activity as a marker. Luciferase activity was quantitated using the EnduRen Live Cell Substrate from Promega (Madison, Wis.). Antiviral activities of compounds toward the recombinant virus were quantified by measuring luciferase activity in MT-2 cells infected for 4-5 days with the recombinant virus in the presence of serial dilutions of the compound.
The 50% effective concentration (EC50) was calculated by using the exponential form of the median effect equation where (Fa)=1/[1+(ED50/drug conc.)^m](Johnson V A, Byington R T. Infectivity Assay. In Techniques in HIV Research. ed. Aldovini A, Walker B D. 71-76. New York: Stockton Press. 1990).

[1] = NL43, read-out: Activity, antiviral activity class, recombinant NL4-3 Renilla luciferase virus in MT-2 cells
[2] = NL43, recombinant NL4-3 Renilla luciferase virus in MT-2 cells

| Structure (SMILES) | EC50 [1] [µM] | EC50 [2] [µM] |
| --- | --- | --- |
| Cc1ccccc1S(=O)(=O)NC(=O)N[C@@H](Cc1ccc(Cl)c(Cl)c1)C(=O)N(C)c1ccc2c(c1)OCO2 [Example 59, (S)—N-(benzo[d][1,3]dioxol-5-yl)-3-(3,4-dichlorophenyl)-N-methyl-2-(3-(o-tolylsulfonyl)ureido)propanamide] | 1 to 10 | 1.04 |
| Cc1ccccc1S(=O)(=O)NC(=O)N[C@@H](Cc1ccc(F)c(F)c1)C(=O)N(C)c1ccc2c(c1)OCO2 [Example 60, (S)—N-(benzo[d][1,3]dioxol-5-yl)-3-(3,4-difluorophenyl)-N-methyl-2-(3-(o-tolylsulfonyl)ureido)propanamide] | 0.1 to 1 | 0.23 |
| Cc1ccccc1S(=O)(=O)NC(=O)N[C@@H](Cc1ccc(C(F)(F)F)cc1)C(=O)N(C)c1ccc2c(c1)OCO2 [Example 61, (S)—N-(benzo[d][1,3]dioxol-5-yl)-N-methyl-2-(3-(o-tolylsulfonyl)ureido)-3-(4-(trifluoromethyl)phenyl)propanamide] | 1 to 10 | 6.62 |
| Cc1ccccc1S(=O)(=O)NC(=O)N[C@@H](Cc1cccc(C#N)c1)C(=O)N(C)c1ccc2c(c1)OCO2 [Example 62, (S)—N-(benzo[d][1,3]dioxol-5-yl)-3-(3-cyanophenyl)-N-methyl-2-(3-(o-tolylsulfonyl)ureido)propanamide] | 1 to 10 | – |
| Cc1ccccc1S(=O)(=O)NC(=O)N[C@@H](Cc1ccc(C#N)cc1)C(=O)N(C)c1ccc2c(c1)OCO2 [Example 63, (S)—N-(benzo[d][1,3]dioxol-5-yl)-3-(4-cyanophenyl)-N-methyl-2-(3-(o-tolylsulfonyl)ureido)propanamide] | 1 to 10 | – |
| COC(=O)c1cccc(C[C@H](NC(=O)NS(=O)(=O)c2ccccc2C)C(=O)N(C)c2ccc3c(c2)OCO3)c1 [Example 64, (S)-methyl 3-(3-(benzo[d][1,3]dioxol-5-yl(methyl)amino)-3-oxo-2-(3-(o-tolylsulfonyl)ureido)propyl)benzoate] | 1 to 10 | – |
| Cc1ccccc1S(=O)(=O)NC(=O)N[C@H](C(=O)N(C)c1ccc2c(c1)OCO2)[C@@H](C)c1ccccc1 [Example 65, (2S,3S)—N-(benzo[d][1,3]dioxol-5-yl)-N-methyl-3-phenyl-2-(3-(o-tolylsulfonyl)ureido)butanamide] | 1 to 10 | 6.83 |
| Cc1ccccc1S(=O)(=O)NC(=O)N[C@@H](Cc1ccccc1C(N)=O)C(=O)N(C)c1ccc2c(c1)OCO2 [Example 66, (S)-2-(3-(benzo[d][1,3]dioxol-5-yl(methyl)amino)-3-oxo-2-(3-(o-tolylsulfonyl)ureido)propyl)benzamide] | – | > 100 |
| Cc1ccccc1S(=O)(=O)NC(=O)N[C@@H](Cc1cc(F)cc(F)c1)C(=O)N(C)c1ccc2c(c1)OCO2 [Example 67, (S)—N-(benzo[d][1,3]dioxol-5-yl)-3-(3,5-difluorophenyl)-N-methyl-2-(3-(o-tolylsulfonyl)ureido)propanamide] | 0.1 to 1 | – |
| Cc1ccccc1S(=O)(=O)NC(=O)N[C@@H](Cc1ccc(OCc2ccccc2)cc1)C(=O)N(C)c1ccc2c(c1)OCO2 [Example 68, (S)—N-(benzo[d][1,3]dioxol-5-yl)-3-(4-(benzyloxy)phenyl)-N-methyl-2-(3-(o-tolylsulfonyl)ureido)propanamide] | 10 to 100 | 16 |
| Cc1ccccc1S(=O)(=O)NC(=O)N[C@@H](Cc1ccc(-c2ccccc2)cc1)C(=O)N(C)c1ccc2c(c1)OCO2 [Example 69, (S)-3-([1,1′-biphenyl]-4-yl)-N-(benzo[d][1,3]dioxol-5-yl)-N-methyl-2-(3-(o-tolylsulfonyl)ureido)propanamide] | 10 to 100 | – |
| Cc1ccccc1S(=O)(=O)NC(=O)N[C@@H](Cc1ccccc1F)C(=O)N(C)c1ccc2c(c1)OCO2 [Example 70, (S)—N-(benzo[d][1,3]dioxol-5-yl)-3-(2-fluorophenyl)-N-methyl-2-(3-(o-tolylsulfonyl)ureido)propanamide] | 0.1 to 1 | – |
| Cc1ccccc1S(=O)(=O)NC(=O)N[C@@H](Cc1cccc(C(F)(F)F)c1)C(=O)N(C)c1ccc2c(c1)OCO2 [Example 71, (S)—N-(benzo[d][1,3]dioxol-5-yl)-N-methyl-2-(3-(o-tolylsulfonyl)ureido)-3-(3-(trifluoromethyl)phenyl)propanamide] | 0.1 to 1 | – |
| Cc1ccc(C[C@H](NC(=O)NS(=O)(=O)c2ccccc2C)C(=O)N(C)c2ccc3c(c2)OCO3)cc1 [Example 72, (S)—N-(benzo[d][1,3]dioxol-5-yl)-N-methyl-3-(p-tolyl)-2-(3-(o-tolylsulfonyl)ureido)propanamide] | 0.1 to 1 | 0.58 |
| CC(=O)Nc1ccc(C[C@H](NC(=O)NS(=O)(=O)c2ccccc2C)C(=O)N(C)c2ccc3c(c2)OCO3)cc1 [Example 73, (S)-3-(4-acetamidophenyl)-N-(benzo[d][1,3]dioxol-5-yl)-N-methyl-2-(3-(o-tolylsulfonyl)ureido)propanamide] | – | > 100 |
| Cc1ccccc1S(=O)(=O)NC(=O)N[C@@H](Cc1ccc(Cl)cc1Cl)C(=O)N(C)c1ccc2c(c1)OCO2 [Example 74, (S)—N-(benzo[d][1,3]dioxol-5-yl)-3-(2,4-dichlorophenyl)-N-methyl-2-(3-(o-tolylsulfonyl)ureido)propanamide] | 1 to 10 | 3.88 |
| Cc1ccccc1S(=O)(=O)NC(=O)N[C@@H](Cc1cc(F)c(F)cc1F)C(=O)N(C)c1ccc2c(c1)OCO2 [Example 75, (S)—N-(benzo[d][1,3]dioxol-5-yl)-N-methyl-2-(3-(o-tolylsulfonyl)ureido)-3-(2,4,5-trifluorophenyl)propanamide] | 0.1 to 1 | 0.29 |
| Cc1ccccc1S(=O)(=O)NC(=O)N[C@@H](Cc1ccccc1Br)C(=O)N(C)c1ccc2c(c1)OCO2 [Example 76, (S)—N-(benzo[d][1,3]dioxol-5-yl)-3-(2-bromophenyl)-N-methyl-2-(3-(o-tolylsulfonyl)ureido)propanamide] | 1 to 10 | – |
| Cc1ccccc1S(=O)(=O)NC(=O)N[C@@H](Cc1ccccc1C#N)C(=O)N(C)c1ccc2c(c1)OCO2 [Example 77, (S)—N-(benzo[d][1,3]dioxol-5-yl)-3-(2-cyanophenyl)-N-methyl-2-(3-(o-tolylsulfonyl)ureido)propanamide] | 1 to 10 | – |
| COc1cccc(C[C@H](NC(=O)NS(=O)(=O)c2ccccc2C)C(=O)N(C)c2ccc3c(c2)OCO3)c1 [Example 78, (S)—N-(benzo[d][1,3]dioxol-5-yl)-3-(3-methoxyphenyl)-N-methyl-2-(3-(o-tolylsulfonyl)ureido)propanamide] | 0.1 to 1 | – |
| Cc1ccccc1S(=O)(=O)NC(=O)N[C@@]1(C(=O)N(C)c2ccc3c(c2)OCO3)C[C@H]1c1ccccc1 [Example 79, (1S,2S)—N-(benzo[d][1,3]dioxol-5-yl)-N-methyl-2-phenyl-1-(3-(o-tolylsulfonyl)ureido)cyclopropanecarboxamide] | 10 to 100 | – |
| Cc1ccccc1S(=O)(=O)NC(=O)N[C@@H](Cc1cccc(C(N)=O)c1)C(=O)N(C)c1ccc2c(c1)OCO2 [Example 80, (S)-3-(3-(benzo[d][1,3]dioxol-5-yl(methyl)amino)-3-oxo-2-(3-(o-tolylsulfonyl)ureido)propyl)benzamide] | – | > 100 |
| Cc1ccccc1S(=O)(=O)NC(=O)N[C@@H](Cc1cccc(S(=O)(=O)N2CCOCC2)c1)C(=O)N(C)c1ccc2c(c1)OCO2 [Example 81, (S)—N-(benzo[d][1,3]dioxol-5-yl)-N-methyl-3-(3-(morpholinosulfonyl)phenyl)-2-(3-(o-tolylsulfonyl)ureido)propanamide] | 10 to 100 | – |
| Cc1ccccc1S(=O)(=O)NC(=O)N[C@@H](Cc1ccc(O)cc1)C(=O)N(C)c1ccc2c(c1)OCO2 [Example 82, (S)—N-(benzo[d][1,3]dioxol-5-yl)-3-(4-hydroxyphenyl)-N-methyl-2-(3-(o-tolylsulfonyl)ureido)propanamide] | 1 to 10 | – |
| Cc1ccccc1S(=O)(=O)NC(=O)N[C@@H](Cc1cccc2ccccc12)C(=O)N(C)c1ccc2c(c1)OCO2 [Example 83, (S)—N-(benzo[d][1,3]dioxol-5-yl)-N-methyl-3-(naphthalen-1-yl)-2-(3-(o-tolylsulfonyl)ureido)propanamide] | 1 to 10 | 4.28 |
| Cc1ccccc1S(=O)(=O)NC(=O)N[C@H](C(=O)N(C)c1ccc2c(c1)OCO2)[C@H]1CCc2ccccc21 [Example 84, (S)—N-(benzo[d][1,3]dioxol-5-yl)-2-((S)-2,3-dihydro-1H-inden-1-yl)-N-methyl-2-(3-(o-tolylsulfonyl)ureido)acetamide] | 10 to 100 | 22.1 |
| Cc1ccccc1S(=O)(=O)NC(=O)N[C@@H](Cc1cccc(F)c1)C(=O)N(C)c1ccc2c(c1)OCO2 [Example 85, (S)—N-(benzo[d][1,3]dioxol-5-yl)-3-(3-fluorophenyl)-N-methyl-2-(3-(o-tolylsulfonyl)ureido)propanamide] | 0.1 to 1 | – |
| CN(C(=O)[C@@H](Cc1ccccc1)NC(=O)NS(=O)(=O)c1ccccc1)c1ccc2c(c1)OCO2 [Example 86] | 10 to 100 | – |
| CN(C(=O)[C@H](Cc1ccccc1)NC(=O)NS(=O)(=O)c1ccccc1)c1ccccc1 [Example 87, (S)—N-methyl-N, 3-diphenyl-2-(3-(phenylsulfonyl)ureido)propanamide] | 0.1 to 1 | – |
